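Cells were grown in 96-well plates and exposed to each compound for 48 hours at five concentrations; endpoints were interpolated linearly between bracketing concentrations, or set to the highest concentration if not reached. GI50 = concentration required for 50% inhibition of growth.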 The source made the active and inactive calls. No stated cut-off is given here; in the data, active = GI50 up to about 1.1 µM and inactive = higher.
How the values were obtained:
Assay in all cases: DTP human tumour cell line panel, 48 h
NCI-H522 = test system: NCI-H522
UACC-62 = test system: UACC-62
K562 = test system: K562
MDA-MB-435 = test system: MDA-MB-435
HCT-116 = test system: HCT-116
MCF7 = test system: MCF7
HOP-62 = test system: HOP-62
HT-29 = test system: HT-29
EKVX = test system: EKVX
SF-539 = test system: SF-539
HCT-15 = test system: HCT-15
RXF 393 = test system: RXF 393
M14 = test system: M14
NCI-H460 = test system: NCI-H460
Hs-578T = test system: Hs-578T
SK-OV-3 = test system: SK-OV-3
MOLT-4 = test system: MOLT-4
CCRF-CEM = test system: CCRF-CEM
UACC-257 = test system: UACC-257
SW-620 = test system: SW-620
NCI/ADR-RES = test system: NCI/ADR-RES
LOX IMVI = test system: LOX IMVI
SN12C = test system: SN12C
OVCAR-5 = test system: OVCAR-5
SF-295 = test system: SF-295
MDA-MB-231 = test system: MDA-MB-231
DU-145 = test system: DU-145
UO-31 = test system: UO-31
NCI-H226 = test system: NCI-H226
SNB-75 = test system: SNB-75
OVCAR-3 = test system: OVCAR-3
MDA-N = test system: MDA-N
TK-10 = test system: TK-10
KM12 = test system: KM12
786-0 = test system: 786-0
ACHN = test system: ACHN
Malme-3M = test system: Malme-3M
SK-MEL-2 = test system: SK-MEL-2
SF-268 = test system: SF-268
OVCAR-8 = test system: OVCAR-8
NCI-H23 = test system: NCI-H23
A549 = test system: A549
BT-549 = test system: BT-549
T47D = test system: T47D
SNB-19 = test system: SNB-19
SK-MEL-5 = test system: SK-MEL-5
IGROV-1 = test system: IGROV-1
OVCAR-4 = test system: OVCAR-4
U-251 = test system: U-251
HCC 2998 = test system: HCC 2998
SK-MEL-28 = test system: SK-MEL-28
COLO 205 = test system: COLO 205
RPMI-8226 = test system: RPMI-8226
CAKI-1 = test system: CAKI-1
PC-3 = test system: PC-3
A498 = test system: A498
HL-60 = test system: HL-60
HOP-92 = test system: HOP-92

CCOC(=O)C1(C/C=C\CBr)CCCCCCCCCCC1=O (stereo not drawn)
GI50 (NCI-H522): 0.497 µM (active)
GI50 (UACC-62): 11.5 µM (inactive)
GI50 (K562): 3.95 µM (inactive)
GI50 (MDA-MB-435): 12 µM (inactive)
GI50 (HCT-116): 17 µM (inactive)
GI50 (MCF7): 12.9 µM (inactive)
GI50 (HOP-62): 18.2 µM (inactive)
GI50 (HT-29): 4.38 µM (inactive)
GI50 (EKVX): 14.9 µM (inactive)
GI50 (SF-539): 3.43 µM (inactive)
GI50 (HCT-15): 16.7 µM
GI50 (RXF 393): 11.2 µM (inactive)
GI50 (M14): 15.7 µM (inactive)
GI50 (NCI-H460): 15.5 µM (inactive)
GI50 (Hs-578T): 20 µM (inactive)
GI50 (SK-OV-3): 16.8 µM (inactive)
GI50 (MOLT-4): 3.56 µM (inactive)
GI50 (CCRF-CEM): 5.69 µM (inactive)
GI50 (UACC-257): 15.2 µM (inactive)
GI50 (SW-620): 13.5 µM (inactive)
GI50 (NCI/ADR-RES): 16.7 µM (inactive)
GI50 (LOX IMVI): 428 nM (active)
GI50 (SN12C): 12.6 µM (inactive)
GI50 (OVCAR-5): 16.2 µM (inactive)
GI50 (SF-295): 16.9 µM (inactive)
GI50 (MDA-MB-231): 3.36 µM (inactive)
GI50 (DU-145): 17.1 µM (inactive)
GI50 (UO-31): 2.9 µM (inactive)
GI50 (NCI-H226): 2.88 µM (inactive)
GI50 (SNB-75): 12.4 µM (inactive)
GI50 (OVCAR-3): 2.09 µM (inactive)
GI50 (MDA-N): 11.9 µM (inactive)
GI50 (TK-10): 8.69 µM (inactive)
GI50 (KM12): 13.2 µM (inactive)
GI50 (786-0): 6.34 µM (inactive)
GI50 (ACHN): 15.6 µM (inactive)
GI50 (Malme-3M): 8.22 µM (inactive)
GI50 (SK-MEL-2): 15.3 µM (inactive)
GI50 (SF-268): 11 µM (inactive)
GI50 (OVCAR-8): 14.5 µM (inactive)
GI50 (NCI-H23): 11.9 µM (inactive)
GI50 (A549): 18 µM (inactive)
GI50 (BT-549): 15.3 µM (inactive)
GI50 (T47D): 12.1 µM (inactive)
GI50 (SNB-19): 14.3 µM (inactive)
GI50 (SK-MEL-5): 12.8 µM (inactive)
GI50 (IGROV-1): 2.94 µM (inactive)
GI50 (OVCAR-4): 10.6 µM (inactive)
GI50 (U-251): 7.01 µM (inactive)
GI50 (HCC 2998): 16 µM (inactive)
GI50 (SK-MEL-28): 15.7 µM (inactive)
GI50 (COLO 205): 17.5 µM (inactive)
GI50 (RPMI-8226): 2.81 µM (inactive)
GI50 (CAKI-1): 13.9 µM (inactive)
GI50 (PC-3): 10.4 µM (inactive)
GI50 (A498): 13.9 µM (inactive)

O=C(C1OC1c1ccc([N+](=O)[O-])cc1)C12CC3CC(CC(C3)C1)C2 (stereo not drawn)
GI50 (NCI-H522): 29 µM (inactive)
GI50 (UACC-62): 12.1 µM (inactive)
GI50 (K562): 13.1 µM (inactive)
GI50 (MDA-MB-435): 12.3 µM (inactive)
GI50 (HCT-116): 7.59 µM (inactive)
GI50 (MCF7): 13.3 µM (inactive)
GI50 (HOP-62): 24.3 µM (inactive)
GI50 (HT-29): 21.4 µM (inactive)
GI50 (EKVX): 18.8 µM (inactive)
GI50 (SF-539): 15.3 µM (inactive)
GI50 (HCT-15): 13.2 µM
GI50 (RXF 393): 22.5 µM (inactive)
GI50 (HL-60): 3.46 µM (inactive)
GI50 (M14): 15.2 µM (inactive)
GI50 (NCI-H460): 13.6 µM (inactive)
GI50 (Hs-578T): 19 µM (inactive)
GI50 (SK-OV-3): 23.2 µM (inactive)
GI50 (MOLT-4): 18.5 µM (inactive)
GI50 (CCRF-CEM): 2.79 µM (inactive)
GI50 (UACC-257): 14.7 µM (inactive)
GI50 (SW-620): 20.7 µM (inactive)
GI50 (NCI/ADR-RES): 17.6 µM (inactive)
GI50 (LOX IMVI): 1690 nM (inactive)
GI50 (SN12C): 13.1 µM (inactive)
GI50 (OVCAR-5): 21 µM (inactive)
GI50 (SF-295): 12.3 µM (inactive)
GI50 (MDA-MB-231): 16.7 µM (inactive)
GI50 (DU-145): 18.2 µM (inactive)
GI50 (UO-31): 18.3 µM (inactive)
GI50 (NCI-H226): 17.2 µM (inactive)
GI50 (HOP-92): 20.3 µM (inactive)
GI50 (SNB-75): 19.1 µM (inactive)
GI50 (OVCAR-3): 13.7 µM (inactive)
GI50 (MDA-N): 11.6 µM (inactive)
GI50 (TK-10): 18.1 µM (inactive)
GI50 (KM12): 14.7 µM (inactive)
GI50 (786-0): 9.98 µM (inactive)
GI50 (ACHN): 18.5 µM (inactive)
GI50 (Malme-3M): 16.9 µM (inactive)
GI50 (SK-MEL-2): 23.4 µM (inactive)
GI50 (SF-268): 18.5 µM (inactive)
GI50 (OVCAR-8): 16.6 µM (inactive)
GI50 (NCI-H23): 13.4 µM (inactive)
GI50 (A549): 25.7 µM (inactive)
GI50 (BT-549): 23.8 µM (inactive)
GI50 (T47D): 16.6 µM (inactive)
GI50 (SNB-19): 17.5 µM (inactive)
GI50 (SK-MEL-5): 15.6 µM (inactive)
GI50 (IGROV-1): 16.4 µM (inactive)
GI50 (OVCAR-4): 17.8 µM (inactive)
GI50 (U-251): 11.9 µM (inactive)
GI50 (HCC 2998): 20.7 µM (inactive)
GI50 (SK-MEL-28): 17.6 µM (inactive)
GI50 (COLO 205): 19.2 µM (inactive)
GI50 (CAKI-1): 20.3 µM (inactive)
GI50 (PC-3): 14.6 µM (inactive)
GI50 (A498): 20.9 µM (inactive)

Source: ChEMBL document CHEMBL1201862, “PubChem BioAssay data set” (2004)
